Active and inactive are the calls of the source. The calls are words filed in the database; no cut-off is given here.
Experiments:
[1] = target: T1, Ephrin type-B receptor 6 (Homo sapiens) (UniProt O15197); assay: (§1) Displacement of biotinylated ephrin-B1-Fc from EphB6 (unknown origin) preincubated for 1 hr followed by biotinylated-ephrin-B1-Fc addition measured after 4 hrs by ELISA
T1 sequence (whole entry): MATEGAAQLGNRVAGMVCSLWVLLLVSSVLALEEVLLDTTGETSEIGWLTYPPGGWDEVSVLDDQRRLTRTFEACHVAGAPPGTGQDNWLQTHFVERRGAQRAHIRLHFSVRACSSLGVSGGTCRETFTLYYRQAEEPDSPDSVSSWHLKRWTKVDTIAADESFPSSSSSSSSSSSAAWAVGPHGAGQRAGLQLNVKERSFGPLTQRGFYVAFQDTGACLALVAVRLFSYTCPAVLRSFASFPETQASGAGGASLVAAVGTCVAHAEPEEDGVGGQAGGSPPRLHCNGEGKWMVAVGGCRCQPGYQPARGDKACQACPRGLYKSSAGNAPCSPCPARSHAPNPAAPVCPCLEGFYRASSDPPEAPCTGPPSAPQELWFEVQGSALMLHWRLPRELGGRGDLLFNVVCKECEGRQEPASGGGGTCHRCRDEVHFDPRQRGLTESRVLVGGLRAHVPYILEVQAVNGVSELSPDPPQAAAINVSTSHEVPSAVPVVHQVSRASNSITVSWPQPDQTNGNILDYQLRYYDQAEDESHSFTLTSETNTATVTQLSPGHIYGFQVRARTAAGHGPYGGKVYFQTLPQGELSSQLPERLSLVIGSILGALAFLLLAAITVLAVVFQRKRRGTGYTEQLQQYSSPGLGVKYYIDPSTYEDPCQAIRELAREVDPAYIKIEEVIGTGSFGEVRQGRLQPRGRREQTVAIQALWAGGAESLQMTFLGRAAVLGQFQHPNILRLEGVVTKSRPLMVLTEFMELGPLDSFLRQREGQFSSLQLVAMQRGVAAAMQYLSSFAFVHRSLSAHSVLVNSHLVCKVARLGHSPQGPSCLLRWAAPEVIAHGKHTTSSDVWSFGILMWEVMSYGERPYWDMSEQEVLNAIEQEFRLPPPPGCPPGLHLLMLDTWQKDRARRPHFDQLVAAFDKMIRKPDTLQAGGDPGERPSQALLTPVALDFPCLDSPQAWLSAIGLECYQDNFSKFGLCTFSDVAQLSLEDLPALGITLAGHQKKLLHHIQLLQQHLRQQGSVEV

Ephrin type-B receptor 6 = target: T2, Ephrin type-B receptor 6 (Homo sapiens, UniProt O15197); assay: as §1
T2 sequence (O15197 whole entry): T1 sequence (whole entry)

[2] = target: T3, G-protein coupled bile acid receptor 1 (Homo sapiens) (UniProt Q8TDU6); assay: Agonist activity at TGR5 (unknown origin) assessed as cAMP level up to 30 uM; assay type: functional
T3 sequence (whole entry): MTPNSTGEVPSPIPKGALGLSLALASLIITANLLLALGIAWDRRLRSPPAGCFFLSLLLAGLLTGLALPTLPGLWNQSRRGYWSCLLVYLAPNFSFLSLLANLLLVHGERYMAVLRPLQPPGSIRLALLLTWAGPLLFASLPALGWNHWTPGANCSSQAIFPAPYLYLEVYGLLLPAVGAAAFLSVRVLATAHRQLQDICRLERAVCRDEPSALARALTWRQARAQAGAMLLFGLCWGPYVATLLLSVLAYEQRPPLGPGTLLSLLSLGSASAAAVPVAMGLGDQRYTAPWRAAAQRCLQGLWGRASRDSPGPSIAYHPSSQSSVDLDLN

Ephrin type-A receptor 4 = Ephrin type-A receptor 4 (Homo sapiens, UniProt P54764); assay: Displacement of biotinylated ephrin-A1-Fc from EphA4 (unknown origin) preincubated for 1 hr followed by biotinylated-ephrin-A1-Fc addition measured after 4 hrs by ELISA
[3] = Cytotoxicity against human PC3 cells at 10 to 30 uM after 2 hrs by LDH release assay; assay type: cell-based; details: pc-3, 2 h
Ephrin type-A receptor 7 = Ephrin type-A receptor 7 (Homo sapiens, UniProt Q15375); assay: Displacement of biotinylated ephrin-A1-Fc from EphA7 (unknown origin) preincubated for 1 hr followed by biotinylated-ephrin-A1-Fc addition measured after 4 hrs by ELISA
[4] = Tmax in mouse at 30 mg/kg, po administered as single dose by HPLC-MS analysis; assay type: ADME, organism-based; details: in vivo

Ephrin type-A receptor 4, sequence (P54764 whole entry): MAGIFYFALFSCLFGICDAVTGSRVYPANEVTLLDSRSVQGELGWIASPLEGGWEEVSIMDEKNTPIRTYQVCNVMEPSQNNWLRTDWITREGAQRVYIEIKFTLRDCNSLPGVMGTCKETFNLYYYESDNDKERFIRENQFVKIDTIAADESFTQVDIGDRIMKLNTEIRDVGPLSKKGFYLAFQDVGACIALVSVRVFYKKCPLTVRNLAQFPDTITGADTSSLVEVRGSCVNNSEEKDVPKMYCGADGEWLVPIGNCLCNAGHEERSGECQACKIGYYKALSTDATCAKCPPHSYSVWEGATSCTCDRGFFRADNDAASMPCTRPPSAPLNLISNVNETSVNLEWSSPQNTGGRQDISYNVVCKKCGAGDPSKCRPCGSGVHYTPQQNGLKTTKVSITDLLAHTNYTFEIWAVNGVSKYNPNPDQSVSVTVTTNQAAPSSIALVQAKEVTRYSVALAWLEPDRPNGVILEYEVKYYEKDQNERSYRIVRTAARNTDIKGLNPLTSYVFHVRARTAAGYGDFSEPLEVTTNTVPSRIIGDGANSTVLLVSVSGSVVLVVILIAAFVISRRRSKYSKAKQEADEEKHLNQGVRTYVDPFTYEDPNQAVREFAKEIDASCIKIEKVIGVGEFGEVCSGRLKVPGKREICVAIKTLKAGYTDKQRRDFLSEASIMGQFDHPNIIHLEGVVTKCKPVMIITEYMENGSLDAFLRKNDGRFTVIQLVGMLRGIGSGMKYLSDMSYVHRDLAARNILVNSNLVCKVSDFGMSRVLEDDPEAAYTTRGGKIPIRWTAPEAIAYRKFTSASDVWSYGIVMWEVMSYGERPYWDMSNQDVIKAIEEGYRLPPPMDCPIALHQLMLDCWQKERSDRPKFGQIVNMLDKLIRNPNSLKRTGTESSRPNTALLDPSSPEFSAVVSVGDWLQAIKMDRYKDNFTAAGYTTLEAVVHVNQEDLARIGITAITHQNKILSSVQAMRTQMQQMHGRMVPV

With `C[C@H](CCC(=O)N[C@@H](Cc1c[nH]c2ccccc12)C(=O)O)[C@H]1CC[C@H]2[C@@H]3CC=C4C[C@@H](O)CC[C@]4(C)[C@H]3CC[C@]12C` as the compound, how does the inhibition [1] read?
Its inhibition is “Dose-dependent effect”.

What about the IC50 (Ephrin type-B receptor 6) of the same compound?
Its IC50 is 3.3 µM.

What about the Activity [2] of the same compound?
The Activity was “inactive”.

What about the IC50 (Ephrin type-A receptor 4) of the same compound?
Its IC50 is 3.8 µM.

And the inhibition (Ephrin type-A receptor 4)?
The inhibition was “Dose-dependent effect”.

And the Activity [3]?
Its Activity is “Non-toxic”.

And the IC50 (Ephrin type-A receptor 7)?
The IC50 was 2.5 µM.

And the inhibition (Ephrin type-A receptor 7)?
The inhibition was “Dose-dependent effect”.

And the Tmax [4]?
Its Tmax is 30 min.
